We go through 9 compounds from ChEMBL document CHEMBL1142001, “Novel and orally bioavailable inducible nitric oxide synthase inhibitors: synthesis and evaluation of optically active 4,5-dialkyl-2-iminoselenazolidine derivatives” (Bioorg Med Chem Lett, 2005).

The target of series [1] is Nitric oxide synthase, inducible (Homo sapiens, UniProt P35228). Kind of series: Inhibitory concentration against inducible […].
The next series deals with Nitric oxide synthase 1 (Homo sapiens, UniProt P29475). As to the kind of experiment: Inhibitory concentration against neuronal […].
A short description of series [2]: Oral bioavailability of compound (0.3 mg/kg) on oral administration to rats. The format is ADME, organism-based. Conditions: rat, in vivo, read-out: Bioavailabiility.
A short description of series [3]: Tmax of compound (0.3 mg/kg) on oral administration to rats. Format: ADME, organism-based. Particulars: rat, in vivo.
Series [4] in a line: Half life value of compound (0.3 mg/kg) on intravenous administration to […]. Particulars: rat, in vivo. The format is ADME, organism-based.
Series [5] can be described thus: Area under the concentration time curve value of compound was determined in rats after oral dosage of 0.3 mg/kg. Conditions: rat, in vivo. Set-up: dose 0.3 mg/kg, route oral. The format is ADME, organism-based.
Series [6] is described as follows: Cmax of compound (0.3 mg/kg) on oral administration to rats. Format: ADME, organism-based. Set-up: dose 0.3 mg/kg, route oral. Particulars: rat, in vivo.
Series [7] is described as follows: Area under concentration time curve value in rat was determined at a intravenous dosage of 0.3 mg/kg. Format: ADME, organism-based. Set-up: dose 0.3 mg/kg, route intravenous. Conditions: in vivo.
For the next series, the system named is Mus musculus. Kind of series: Inhibitory dose (p.o.) tested against plasma nitrite/nitrate levels in LPS-treated mice. Format: functional. Conditions: po, read-out: ID50 (the source's name).
Series [8] is described as follows: Clearance rate (0.3 mg/kg) on intravenous administration to rats. The format is ADME, organism-based. Particulars: rat, in vivo.
Series [9] is described as follows: Half life value of compound (0.3 mg/kg) on oral administration to rats. Particulars: rat, in vivo. The format is ADME, organism-based.

Chain of Nitric oxide synthase, inducible (P35228 whole entry): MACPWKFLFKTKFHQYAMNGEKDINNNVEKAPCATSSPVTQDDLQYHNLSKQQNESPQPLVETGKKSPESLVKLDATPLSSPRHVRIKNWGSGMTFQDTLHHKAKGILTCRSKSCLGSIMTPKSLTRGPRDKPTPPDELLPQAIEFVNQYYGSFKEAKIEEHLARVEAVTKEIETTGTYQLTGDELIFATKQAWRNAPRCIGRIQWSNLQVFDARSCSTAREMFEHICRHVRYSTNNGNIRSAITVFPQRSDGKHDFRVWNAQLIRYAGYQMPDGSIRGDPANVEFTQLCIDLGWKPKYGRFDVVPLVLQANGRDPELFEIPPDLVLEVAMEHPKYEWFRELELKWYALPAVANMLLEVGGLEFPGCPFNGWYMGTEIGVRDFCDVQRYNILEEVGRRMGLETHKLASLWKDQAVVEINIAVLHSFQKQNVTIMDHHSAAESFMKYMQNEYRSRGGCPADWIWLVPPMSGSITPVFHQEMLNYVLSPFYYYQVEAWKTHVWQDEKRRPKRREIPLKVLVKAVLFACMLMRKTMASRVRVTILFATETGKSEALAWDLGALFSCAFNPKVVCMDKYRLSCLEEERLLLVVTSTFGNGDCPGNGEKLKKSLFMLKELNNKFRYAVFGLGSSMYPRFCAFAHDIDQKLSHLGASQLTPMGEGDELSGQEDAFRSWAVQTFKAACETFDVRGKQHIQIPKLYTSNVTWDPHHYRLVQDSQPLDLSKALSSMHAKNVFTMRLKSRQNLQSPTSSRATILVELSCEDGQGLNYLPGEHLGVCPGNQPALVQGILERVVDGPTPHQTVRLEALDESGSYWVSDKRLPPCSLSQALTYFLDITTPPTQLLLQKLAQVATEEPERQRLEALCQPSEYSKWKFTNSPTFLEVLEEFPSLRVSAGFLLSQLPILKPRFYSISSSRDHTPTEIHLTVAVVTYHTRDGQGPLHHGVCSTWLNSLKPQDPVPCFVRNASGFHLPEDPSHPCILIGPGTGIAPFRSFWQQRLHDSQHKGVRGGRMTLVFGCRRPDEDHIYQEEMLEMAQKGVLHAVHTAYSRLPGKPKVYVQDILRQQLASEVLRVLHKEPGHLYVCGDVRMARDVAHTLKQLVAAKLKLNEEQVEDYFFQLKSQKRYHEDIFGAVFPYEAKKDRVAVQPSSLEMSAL
Chain of Nitric oxide synthase 1 (P29475 whole entry): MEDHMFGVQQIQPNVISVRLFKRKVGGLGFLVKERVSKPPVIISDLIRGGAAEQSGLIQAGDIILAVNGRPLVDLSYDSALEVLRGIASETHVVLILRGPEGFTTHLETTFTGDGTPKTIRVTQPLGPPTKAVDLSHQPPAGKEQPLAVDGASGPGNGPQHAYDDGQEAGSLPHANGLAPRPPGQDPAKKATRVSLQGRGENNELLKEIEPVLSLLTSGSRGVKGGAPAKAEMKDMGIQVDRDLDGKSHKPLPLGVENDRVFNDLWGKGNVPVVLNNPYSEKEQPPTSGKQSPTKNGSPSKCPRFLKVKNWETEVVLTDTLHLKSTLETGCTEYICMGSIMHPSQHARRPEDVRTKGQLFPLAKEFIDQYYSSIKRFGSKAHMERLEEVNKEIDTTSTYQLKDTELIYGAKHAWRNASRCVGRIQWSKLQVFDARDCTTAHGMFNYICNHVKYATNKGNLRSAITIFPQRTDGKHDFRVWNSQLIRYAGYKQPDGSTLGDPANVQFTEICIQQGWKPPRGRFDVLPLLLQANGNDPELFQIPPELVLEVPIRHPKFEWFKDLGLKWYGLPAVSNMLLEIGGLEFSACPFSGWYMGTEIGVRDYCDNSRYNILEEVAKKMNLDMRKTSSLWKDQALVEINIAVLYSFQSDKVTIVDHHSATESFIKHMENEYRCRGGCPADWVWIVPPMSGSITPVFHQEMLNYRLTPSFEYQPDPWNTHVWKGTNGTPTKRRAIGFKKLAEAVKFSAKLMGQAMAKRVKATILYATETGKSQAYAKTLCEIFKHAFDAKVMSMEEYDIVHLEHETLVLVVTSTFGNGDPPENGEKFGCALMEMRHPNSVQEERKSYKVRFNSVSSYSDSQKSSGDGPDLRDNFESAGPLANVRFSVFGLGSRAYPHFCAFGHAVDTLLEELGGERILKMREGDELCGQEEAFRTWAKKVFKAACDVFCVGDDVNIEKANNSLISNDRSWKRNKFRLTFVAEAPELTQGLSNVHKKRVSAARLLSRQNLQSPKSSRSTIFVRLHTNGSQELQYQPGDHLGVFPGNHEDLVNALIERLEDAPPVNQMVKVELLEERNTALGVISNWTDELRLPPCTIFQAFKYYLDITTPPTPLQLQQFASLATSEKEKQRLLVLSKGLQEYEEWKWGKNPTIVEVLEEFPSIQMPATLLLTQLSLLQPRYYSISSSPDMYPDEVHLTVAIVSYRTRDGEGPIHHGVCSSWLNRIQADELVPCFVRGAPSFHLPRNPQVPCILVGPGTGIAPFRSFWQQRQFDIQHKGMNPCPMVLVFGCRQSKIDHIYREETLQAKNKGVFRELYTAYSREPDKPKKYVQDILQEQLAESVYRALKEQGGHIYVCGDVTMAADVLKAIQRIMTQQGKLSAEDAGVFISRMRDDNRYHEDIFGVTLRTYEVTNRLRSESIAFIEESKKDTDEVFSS

For the compound `CC[C@H]1N=C(N)[Se][C@H]1C`, the IC50 – broadly, the midpoint of a concentration-inhibition curve – was found to be 21 nM in [1] and 280 nM against Nitric oxide synthase 1.
As for `CC[C@H]1[Se]C(N)=N[C@@H]1C`, the bioavailability in [2] turned out to be 73%. Also, the Tmax (commonly the time from dosing to the highest level) in series [3] turned out to be 30 min. The half-life (usually the time needed for the level to fall by half in the phase considered) in [4] was 57 min; in series [9], 72 min. In addition, the AUC (usually concentration integrated over time) in series [5] is 45 ng·h/mL; in [7], 117 ng·h/mL. Further, the Cmax (as a rule, the peak of the concentration-time curve) in [6] was determined as 45 ng/mL. Moreover, in the series with Mus musculus, the ED50 stood at 0.3 mg/kg. Also, the clearance (in general, a measure of how efficiently the substance is removed, as volume per time) in [8] is 55.5 mL/min/kg. In addition, the IC50 in [1] came to 9.3 nM; against Nitric oxide synthase 1, 790 nM.
In the case of `CC[C@@H]1N=C(N)[Se][C@H]1C`, the IC50 in [1] was found to be 21 nM; on Nitric oxide synthase 1, 280 nM.
In the same order, the values of `CC[C@H]1N=C(N)[Se][C@@H]1C` are 9.4 nM and 92 nM.
In the same order, the values of `CC[C@H]1SC(N)=N[C@@H]1C` are 6.6 nM and 380 nM.
The like results for `CC[C@H]1[Se]C(N)=N[C@H]1C` were, in that order, 340 nM and 6900 nM.
As to `CC[C@@H]1N=C(N)[Se][C@@H]1C`, the values for the IC50 (in [1]; on Nitric oxide synthase 1) were 80 nM and 740 nM, respectively.
The like results for `CC[C@@H]1[Se]C(N)=N[C@H]1C` were, in that order, 34 nM and 350 nM.
The like results for `CC[C@@H]1[Se]C(N)=N[C@@H]1C` were, in that order, 66 nM and 1300 nM.
